# Measured values: BindingDB's records for doi:10.1021/acschembio.6b00357 (Uppsala University, 2016)
# Experiments:
# Assay in all cases: Radioligand Binding Assay
# [1] = target: T1, Adenosine receptor A3 (Homo sapiens, UniProt P0DMS8)
# T1 sequence (P0DMS8 whole entry): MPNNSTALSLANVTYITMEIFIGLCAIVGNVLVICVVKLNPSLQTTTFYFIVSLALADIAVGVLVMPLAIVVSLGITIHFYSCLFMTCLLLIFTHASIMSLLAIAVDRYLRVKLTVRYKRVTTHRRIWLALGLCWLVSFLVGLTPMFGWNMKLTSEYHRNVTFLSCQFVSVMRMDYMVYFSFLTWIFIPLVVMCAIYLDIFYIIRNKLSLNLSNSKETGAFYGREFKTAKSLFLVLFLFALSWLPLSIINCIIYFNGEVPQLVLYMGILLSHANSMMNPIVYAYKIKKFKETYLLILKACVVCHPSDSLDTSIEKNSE
# Protocol: (§1) Nonspecific binding was determined using adenosine-′-Nethyluronamideat 10 μM concentration.
# [2] = target: T2, Adenosine receptor A1 (Homo sapiens, UniProt P30542)
# T2 sequence (P30542 whole entry): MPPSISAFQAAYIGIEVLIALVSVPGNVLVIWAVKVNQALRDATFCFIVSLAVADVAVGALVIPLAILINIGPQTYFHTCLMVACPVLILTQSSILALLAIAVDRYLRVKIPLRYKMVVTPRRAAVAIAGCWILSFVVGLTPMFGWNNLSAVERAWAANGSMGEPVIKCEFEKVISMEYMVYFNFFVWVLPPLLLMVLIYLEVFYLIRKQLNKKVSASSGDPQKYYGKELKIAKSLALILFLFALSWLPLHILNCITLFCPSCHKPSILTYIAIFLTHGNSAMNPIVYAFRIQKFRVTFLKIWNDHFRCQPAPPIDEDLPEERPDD
# Protocol: as §1
# [3] = target: Adenosine receptor A2a (Homo sapiens, UniProt P29274)
# Protocol: as §1
# Sequence of Adenosine receptor A2a (P29274 whole entry): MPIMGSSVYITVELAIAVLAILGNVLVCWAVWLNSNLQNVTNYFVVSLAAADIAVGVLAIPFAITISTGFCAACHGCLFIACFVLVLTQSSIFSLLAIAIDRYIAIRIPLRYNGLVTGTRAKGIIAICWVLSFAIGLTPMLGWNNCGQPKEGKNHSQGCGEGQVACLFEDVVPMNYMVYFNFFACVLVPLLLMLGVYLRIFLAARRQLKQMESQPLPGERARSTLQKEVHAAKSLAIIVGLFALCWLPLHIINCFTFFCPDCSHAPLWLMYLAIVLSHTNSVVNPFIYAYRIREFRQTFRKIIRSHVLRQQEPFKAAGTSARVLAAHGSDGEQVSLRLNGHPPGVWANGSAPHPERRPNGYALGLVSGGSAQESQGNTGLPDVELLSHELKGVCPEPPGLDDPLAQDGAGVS
structure (smiles),measurement,setting,value
"Nc1cccc2c1ncn2[C@@H]1O[C@H](CO)[C@@H](O)[C@H]1O [Adenosine receptor agonist, 7]",Ki,[1],823 nM
"Cc1cn([C@@H]2O[C@H](CO)[C@@H](O)[C@H]2O)c(=O)nc1N [Adenosine receptor agonist, 13]",Ki,[1],8020 nM
Nc1ccnc2c1ncn2[C@@H]1O[C@H](CO)[C@@H](O)[C@H]1O [1-DEAZA-ADENOSINE],Ki,[2],84 nM
same,Ki,[3],645 nM
same,Ki,[1],583 nM
Nc1nccc2c1ncn2[C@@H]1O[C@H](CO)[C@@H](O)[C@H]1O [CAS_6736-58-9],Ki,[2],461 nM
"Nc1ncn([C@@H]2O[C@H](CO)[C@@H](O)[C@H]2O)c(=O)c1Cl [Adenosine receptor agonist, 14]",Ki,[2],359 nM
same,Ki,[1],557 nM
"Nc1nc(=O)[nH]c2c1ncn2[C@@H]1O[C@H](CO)[C@@H](O)[C@H]1O [Adenosine receptor agonist, 9]",Ki,[2],467 nM
same,Ki,[3],495 nM
same,Ki,[1],348 nM
